In ChEMBL document CHEMBL5214883, “Comprehensive review for anticancer hybridized multitargeting HDAC inhibitors” (Eur J Med Chem, 2021):
Each block holds one molecule with its values, some of them ahead of it.

What was measured:
Histone deacetylase [1] = assay: Inhibition of HDAC (unknown origin); type: protein assay, Homo sapiens
Histone deacetylase 1 [2] = molecular target: T1, Histone deacetylase 1 (Homo sapiens, UniProt Q13547); assay: Inhibition of HDAC1 (unknown origin) relative to control; conditions: concentration not given here
T1 sequence (Q13547 whole entry): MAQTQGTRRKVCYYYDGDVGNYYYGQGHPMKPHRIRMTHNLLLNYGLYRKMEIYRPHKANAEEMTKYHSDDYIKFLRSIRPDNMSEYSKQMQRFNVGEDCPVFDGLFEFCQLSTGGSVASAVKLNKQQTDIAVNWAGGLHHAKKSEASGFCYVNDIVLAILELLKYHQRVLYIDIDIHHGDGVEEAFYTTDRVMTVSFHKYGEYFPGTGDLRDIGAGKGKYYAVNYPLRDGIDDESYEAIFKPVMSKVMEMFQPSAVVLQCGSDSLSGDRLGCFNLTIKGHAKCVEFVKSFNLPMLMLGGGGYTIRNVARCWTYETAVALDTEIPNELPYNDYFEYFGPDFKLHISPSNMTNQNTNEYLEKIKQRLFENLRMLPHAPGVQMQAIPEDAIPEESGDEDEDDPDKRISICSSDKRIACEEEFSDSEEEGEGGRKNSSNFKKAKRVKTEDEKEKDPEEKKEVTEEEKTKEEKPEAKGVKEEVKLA

SMMC-7721 = assay: Cytotoxicity against human SMMC-7721 cells; type: functional, cell-based
DU-145 [3] = assay: Antiproliferative activity against human DU-145 cells incubated for 48 hrs by Sulforhodamine B staining method; type: functional, cell-based; conditions: DU-145, 48 h
[4] = molecular target: Epidermal growth factor receptor (Homo sapiens, UniProt P00533); assay: Inhibition of EGFR (unknown origin)
Chain of Epidermal growth factor receptor (P00533 whole entry): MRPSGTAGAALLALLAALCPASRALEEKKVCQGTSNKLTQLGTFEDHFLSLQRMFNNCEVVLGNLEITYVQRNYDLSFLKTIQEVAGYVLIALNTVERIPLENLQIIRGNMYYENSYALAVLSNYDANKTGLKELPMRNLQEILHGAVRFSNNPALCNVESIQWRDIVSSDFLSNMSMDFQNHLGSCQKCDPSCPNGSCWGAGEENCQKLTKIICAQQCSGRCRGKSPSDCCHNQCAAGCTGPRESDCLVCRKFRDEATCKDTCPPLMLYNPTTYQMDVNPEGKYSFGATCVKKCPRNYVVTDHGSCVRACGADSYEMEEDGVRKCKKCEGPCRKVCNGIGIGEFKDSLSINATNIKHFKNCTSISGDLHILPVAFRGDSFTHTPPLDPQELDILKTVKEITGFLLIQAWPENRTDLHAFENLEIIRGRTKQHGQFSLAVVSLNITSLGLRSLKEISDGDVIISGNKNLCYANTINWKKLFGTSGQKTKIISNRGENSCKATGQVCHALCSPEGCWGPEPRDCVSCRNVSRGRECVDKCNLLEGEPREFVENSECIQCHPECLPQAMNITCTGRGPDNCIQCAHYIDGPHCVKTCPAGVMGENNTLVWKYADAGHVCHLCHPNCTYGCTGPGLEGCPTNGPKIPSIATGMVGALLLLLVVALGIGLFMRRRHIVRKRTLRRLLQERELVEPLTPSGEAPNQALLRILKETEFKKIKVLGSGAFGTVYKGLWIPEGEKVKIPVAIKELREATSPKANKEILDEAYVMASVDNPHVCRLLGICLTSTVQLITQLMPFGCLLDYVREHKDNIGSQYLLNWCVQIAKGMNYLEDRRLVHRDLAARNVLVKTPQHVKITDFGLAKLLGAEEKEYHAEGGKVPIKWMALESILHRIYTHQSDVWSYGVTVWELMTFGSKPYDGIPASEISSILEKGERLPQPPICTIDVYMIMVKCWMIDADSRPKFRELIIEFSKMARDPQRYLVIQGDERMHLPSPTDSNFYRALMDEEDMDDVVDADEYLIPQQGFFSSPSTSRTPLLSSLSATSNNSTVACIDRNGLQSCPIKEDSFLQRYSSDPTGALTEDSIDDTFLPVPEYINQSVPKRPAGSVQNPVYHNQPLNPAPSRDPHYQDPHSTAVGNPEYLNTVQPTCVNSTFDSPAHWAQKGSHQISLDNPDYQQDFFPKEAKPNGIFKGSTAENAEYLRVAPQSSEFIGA

[5] = molecular target: Vascular endothelial growth factor receptor 2 (Homo sapiens, UniProt P35968); assay: Inhibition of VEGFR2 (unknown origin)
Chain of Vascular endothelial growth factor receptor 2 (P35968 whole entry): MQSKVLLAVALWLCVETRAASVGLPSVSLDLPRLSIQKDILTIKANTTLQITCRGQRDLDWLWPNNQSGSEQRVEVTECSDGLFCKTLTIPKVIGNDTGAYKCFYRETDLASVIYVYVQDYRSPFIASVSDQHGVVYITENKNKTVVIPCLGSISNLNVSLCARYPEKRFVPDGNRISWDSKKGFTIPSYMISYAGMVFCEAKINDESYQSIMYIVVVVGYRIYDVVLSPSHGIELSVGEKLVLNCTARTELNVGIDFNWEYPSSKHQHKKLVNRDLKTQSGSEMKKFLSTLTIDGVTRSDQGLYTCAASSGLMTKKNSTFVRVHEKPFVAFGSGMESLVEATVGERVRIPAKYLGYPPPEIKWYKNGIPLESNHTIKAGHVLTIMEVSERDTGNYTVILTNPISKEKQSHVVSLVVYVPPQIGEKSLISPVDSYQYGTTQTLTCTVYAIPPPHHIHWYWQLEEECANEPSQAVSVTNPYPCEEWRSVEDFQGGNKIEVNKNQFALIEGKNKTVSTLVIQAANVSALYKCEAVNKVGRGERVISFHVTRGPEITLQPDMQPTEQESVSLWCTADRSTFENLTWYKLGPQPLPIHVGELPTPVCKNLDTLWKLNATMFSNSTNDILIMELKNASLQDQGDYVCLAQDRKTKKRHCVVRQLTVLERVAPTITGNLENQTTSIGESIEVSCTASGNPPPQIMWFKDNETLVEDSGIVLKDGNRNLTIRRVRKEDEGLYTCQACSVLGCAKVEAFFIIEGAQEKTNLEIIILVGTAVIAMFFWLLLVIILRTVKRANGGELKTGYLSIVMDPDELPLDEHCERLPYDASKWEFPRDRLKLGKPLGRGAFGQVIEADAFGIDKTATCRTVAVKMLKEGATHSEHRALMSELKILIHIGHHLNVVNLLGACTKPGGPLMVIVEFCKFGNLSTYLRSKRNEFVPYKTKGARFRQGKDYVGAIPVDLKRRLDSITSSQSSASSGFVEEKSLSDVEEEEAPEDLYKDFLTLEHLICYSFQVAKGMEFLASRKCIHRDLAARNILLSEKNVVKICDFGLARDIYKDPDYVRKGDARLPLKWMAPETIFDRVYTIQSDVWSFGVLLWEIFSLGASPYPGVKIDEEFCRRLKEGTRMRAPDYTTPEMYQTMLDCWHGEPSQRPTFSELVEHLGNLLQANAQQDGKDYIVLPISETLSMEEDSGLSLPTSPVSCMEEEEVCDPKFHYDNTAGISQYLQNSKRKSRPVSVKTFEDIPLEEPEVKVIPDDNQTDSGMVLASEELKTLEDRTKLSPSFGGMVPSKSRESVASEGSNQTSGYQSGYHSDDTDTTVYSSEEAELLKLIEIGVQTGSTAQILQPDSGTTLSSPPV

K562 = assay: Cytotoxicity against human K562 cells
DU-145 [6] = assay: Cytotoxicity against human DU-145 cells
Histone deacetylase 1 [7] = molecular target: T1, Histone deacetylase 1; assay: Inhibition of human recombinant HDAC1 using Ac-Lys-Tyr-Lys (epsilon-acetyl)-AMC as substrate incubated for 24 hrs by EnVision multilabel plate reader method
Tubulin = assay: Inhibition of tubulin polymerization (unknown origin) incubated for 15 mins in presence of GTP by fluorescence-based tubulin polymerization assay kit; type: protein-complex assay, Homo sapiens
[8] = molecular target: T2, Protein deacetylase HDAC6 (Homo sapiens, UniProt Q9UBN7); assay: Inhibition of HDAC6 (unknown origin) using fluorogenic substrate incubated for 30 mins by fluorometric drug discovery assay kit method
T2 sequence (Q9UBN7 whole entry): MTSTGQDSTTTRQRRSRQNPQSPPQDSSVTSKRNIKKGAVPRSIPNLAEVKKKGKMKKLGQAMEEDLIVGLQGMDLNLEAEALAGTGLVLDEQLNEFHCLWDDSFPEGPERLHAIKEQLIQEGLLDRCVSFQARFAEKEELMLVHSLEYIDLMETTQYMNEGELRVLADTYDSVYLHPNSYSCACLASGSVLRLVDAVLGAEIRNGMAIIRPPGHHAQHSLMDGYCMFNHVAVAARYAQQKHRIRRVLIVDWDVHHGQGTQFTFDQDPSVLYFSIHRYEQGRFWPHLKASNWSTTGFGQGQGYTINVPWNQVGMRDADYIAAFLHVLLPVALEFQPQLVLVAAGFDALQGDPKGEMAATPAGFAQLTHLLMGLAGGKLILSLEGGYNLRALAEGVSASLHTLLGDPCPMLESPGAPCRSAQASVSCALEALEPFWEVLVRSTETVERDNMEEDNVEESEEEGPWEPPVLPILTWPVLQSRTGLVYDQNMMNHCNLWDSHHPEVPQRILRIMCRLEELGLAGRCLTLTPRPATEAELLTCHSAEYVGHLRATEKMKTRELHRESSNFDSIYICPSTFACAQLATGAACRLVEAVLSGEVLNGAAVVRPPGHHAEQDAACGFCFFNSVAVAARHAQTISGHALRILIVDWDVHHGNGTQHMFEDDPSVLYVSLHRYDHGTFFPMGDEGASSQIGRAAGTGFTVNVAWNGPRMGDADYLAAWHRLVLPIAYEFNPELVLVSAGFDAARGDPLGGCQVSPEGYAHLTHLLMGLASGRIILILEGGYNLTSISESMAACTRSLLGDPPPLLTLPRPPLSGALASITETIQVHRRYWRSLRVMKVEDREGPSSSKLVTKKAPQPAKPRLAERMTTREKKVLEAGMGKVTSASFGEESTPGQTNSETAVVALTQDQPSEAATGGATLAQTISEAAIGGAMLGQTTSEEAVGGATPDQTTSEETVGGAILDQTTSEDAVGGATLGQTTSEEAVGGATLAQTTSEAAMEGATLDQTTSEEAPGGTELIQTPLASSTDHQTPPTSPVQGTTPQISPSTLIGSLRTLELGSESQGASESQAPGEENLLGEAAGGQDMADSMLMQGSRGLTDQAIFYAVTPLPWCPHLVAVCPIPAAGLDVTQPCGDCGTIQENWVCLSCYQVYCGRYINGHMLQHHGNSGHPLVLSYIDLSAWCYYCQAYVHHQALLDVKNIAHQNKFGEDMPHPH

[9] = molecular target: Inhibitor of nuclear factor kappa-B kinase subunit alpha (Homo sapiens) (UniProt O15111); assay: Inhibition of IKKa (unknown origin) at 1 uM relative to control
Chain of Inhibitor of nuclear factor kappa-B kinase subunit alpha (Homo sapiens) (O15111 whole entry): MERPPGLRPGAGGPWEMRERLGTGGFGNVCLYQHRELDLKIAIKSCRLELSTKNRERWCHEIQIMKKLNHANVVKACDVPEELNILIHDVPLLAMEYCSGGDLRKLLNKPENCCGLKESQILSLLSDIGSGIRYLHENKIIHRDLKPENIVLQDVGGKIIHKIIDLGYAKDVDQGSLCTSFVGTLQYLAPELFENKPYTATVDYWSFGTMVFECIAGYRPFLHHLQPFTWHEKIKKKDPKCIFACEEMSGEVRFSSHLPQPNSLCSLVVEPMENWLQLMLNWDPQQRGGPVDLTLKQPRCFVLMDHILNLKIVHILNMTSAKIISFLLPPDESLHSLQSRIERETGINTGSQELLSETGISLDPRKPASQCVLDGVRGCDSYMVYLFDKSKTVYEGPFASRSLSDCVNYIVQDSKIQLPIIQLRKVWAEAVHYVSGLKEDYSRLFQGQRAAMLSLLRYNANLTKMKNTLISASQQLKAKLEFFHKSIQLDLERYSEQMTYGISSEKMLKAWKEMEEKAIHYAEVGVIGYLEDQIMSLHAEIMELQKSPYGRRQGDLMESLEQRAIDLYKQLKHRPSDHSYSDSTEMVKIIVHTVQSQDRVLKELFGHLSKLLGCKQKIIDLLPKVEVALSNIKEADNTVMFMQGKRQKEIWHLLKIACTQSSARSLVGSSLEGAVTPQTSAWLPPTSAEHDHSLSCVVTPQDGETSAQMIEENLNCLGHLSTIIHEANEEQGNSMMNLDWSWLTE

[10] = molecular target: Ribosomal protein S6 kinase alpha-5 (Homo sapiens) (UniProt O75582); assay: Inhibition of MSK1 (unknown origin) at 1 uM relative to control
Histone deacetylase 1 [11] = molecular target: T1, Histone deacetylase 1; assay: Inhibition of HDAC1 (unknown origin)
[12] = molecular target: T2, Protein deacetylase HDAC6; assay: Inhibition of HDAC6 (unknown origin)
Histone deacetylase 8 = Histone deacetylase 8 (Homo sapiens, UniProt Q9BY41); assay: Inhibition of HDAC8 (unknown origin)
Chain of Histone deacetylase 8 (Q9BY41 whole entry): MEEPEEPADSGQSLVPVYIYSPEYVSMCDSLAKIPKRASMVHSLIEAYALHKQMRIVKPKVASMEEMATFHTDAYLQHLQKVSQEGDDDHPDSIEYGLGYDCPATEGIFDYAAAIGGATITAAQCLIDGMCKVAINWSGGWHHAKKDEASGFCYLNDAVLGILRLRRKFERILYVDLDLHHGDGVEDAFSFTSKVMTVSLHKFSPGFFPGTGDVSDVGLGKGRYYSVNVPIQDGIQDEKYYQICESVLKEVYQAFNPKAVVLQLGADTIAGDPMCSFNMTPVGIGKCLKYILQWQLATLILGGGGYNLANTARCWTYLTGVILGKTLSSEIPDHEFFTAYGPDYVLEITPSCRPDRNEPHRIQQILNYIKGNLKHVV

Vitamin D3 receptor = Vitamin D3 receptor (Homo sapiens, UniProt P11473); assay: Agonist activity at Vitamin D receptor (unknown origin) by fluorescence polarization assay
HCT-116 = assay: In vivo antitumor activity against human HCT-116 cells xenografted in BALB/c nude mouse assessed as tumor growth inhibition at 150 mg/kg, po relative to control; type: functional; conditions: read-out: TGI
[13] = test system: Panel NCI-60 (60 carcinoma cell lines); assay: Cytotoxicity against human Panel NCI-60 (60 carcinoma cell lines); type: functional, cell-based
Histone deacetylase [14] = assay: Inhibition of HDAC (unknown origin) by H4 Hybrid Multi-Mode Microplate Reade; type: protein assay, Homo sapiens
[15] = molecular target: Histone-lysine N-methyltransferase EZH2 (Homo sapiens, UniProt Q15910); assay: Inhibition of EZH2 (unknown origin)
Chain of Histone-lysine N-methyltransferase EZH2 (Q15910 whole entry): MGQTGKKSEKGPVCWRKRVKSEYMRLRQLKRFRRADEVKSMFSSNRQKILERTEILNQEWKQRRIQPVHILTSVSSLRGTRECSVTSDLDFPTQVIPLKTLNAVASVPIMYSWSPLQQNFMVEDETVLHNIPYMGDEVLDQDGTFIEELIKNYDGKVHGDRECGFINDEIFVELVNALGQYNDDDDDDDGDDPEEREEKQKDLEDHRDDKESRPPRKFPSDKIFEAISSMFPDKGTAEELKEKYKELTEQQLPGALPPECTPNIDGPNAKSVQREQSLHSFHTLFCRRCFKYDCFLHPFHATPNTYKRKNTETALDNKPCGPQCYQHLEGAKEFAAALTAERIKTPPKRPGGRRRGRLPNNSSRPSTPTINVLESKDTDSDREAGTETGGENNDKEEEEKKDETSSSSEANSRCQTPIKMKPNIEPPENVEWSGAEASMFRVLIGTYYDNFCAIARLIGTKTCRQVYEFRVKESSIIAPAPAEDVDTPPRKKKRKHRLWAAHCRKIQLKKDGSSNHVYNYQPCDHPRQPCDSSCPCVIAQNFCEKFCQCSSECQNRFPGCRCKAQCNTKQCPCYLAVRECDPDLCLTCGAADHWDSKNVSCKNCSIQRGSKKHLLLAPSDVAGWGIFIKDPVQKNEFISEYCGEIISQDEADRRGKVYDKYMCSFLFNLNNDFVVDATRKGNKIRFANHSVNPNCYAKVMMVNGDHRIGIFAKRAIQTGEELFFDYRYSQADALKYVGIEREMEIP

IC50 (Histone deacetylase [1]): > 1000 µM
SMILES: CN(C)C(=O)c1cc(Oc2ccc(NC(=O)c3ccc(Cl)c(C(F)(F)F)c3)cc2)ccc1N

IC50 (Histone deacetylase [1]): 2.27 µM
SMILES: CNC(=O)c1cc(Oc2ccc(NC(=O)c3ccc(N)cc3)cc2)ccc1N

IC50 (DU-145 [3]): 0.79 µM | IC50 [4]: 0.012 µM | IC50 [5]: > 10 µM
SMILES: O=C(CCCCCCC(=O)Nc1ccccc1)NO [VORINOSTAT]

IC50 (Histone deacetylase [1]): 6.19 µM
SMILES: CNC(=O)c1cc(Oc2ccc(NC(=O)c3ccccc3)cc2)ccc1N

IC50 (Histone deacetylase 1 [11]): 0.00058 µM
SMILES: CC(C)=CCC/C(C)=C\CC/C(C)=C\CSc1ccccc1C(=O)NCCCCC(=O)NO
IC50 (SMMC-7721): 4.93 µM

IC50 [12]: 0.16 µM | IC50 (Histone deacetylase 8): 0.26 µM
SMILES: CN(CCOc1no[n+]([O-])c1S(=O)(=O)c1ccccc1)C(=O)c1ccc(/C=C/C(=O)NO)cc1

IC50 (Histone deacetylase [14]): 0.0612 µM
SMILES: O=C(CCCCCN1CC(=O)N2[C@@H](CC3c4ccccc4NC3[C@@H]2c2ccc(Br)cc2)C1=O)NO (some centres undefined)

IC50 (Histone deacetylase [1]): 1.17 µM
SMILES: CNC(=O)c1cc(Oc2ccc(NC(=O)c3ccc(Cl)c(C(F)(F)F)c3)cc2)ccc1N

IC50 [15]: 15.4 µM
SMILES: Cc1cc(C)c(CNC(=O)c2cc(C)n(-c3ccccc3)c2C)c(=O)[nH]1

Second part, the molecule before the results:

SMILES: O=C(CCn1cc(CCn2nc3c(Br)c(Br)c(Br)c(Br)c3n2)nn1)NO
inhibition (Histone deacetylase 1 [2]): 97%

SMILES: CC(C)=CCC/C(C)=C\CC/C(C)=C\CSc1ccccc1C(=O)O
IC50 (SMMC-7721): 66 µM

SMILES: Cc1nc(Nc2ncc(C(=O)Nc3c(C)cccc3Cl)s2)cc(N2CCN(CCO)CC2)n1 [DASATINIB]
IC50 (K562): 7.44 µM | IC50 (DU-145 [6]): 2.43 µM

SMILES: COc1cc2ncnc(Nc3cccc(/C=C/C(=O)NO)c3)c2cc1OCCCN1CCOCC1
IC50 (Histone deacetylase 1 [7]): 0.15 µM

SMILES: C[C@H]1COc2c(N3CCN(C)CC3)c(F)cc3c(=O)c(C(=O)OCc4cn(CCCCCCC(=O)NO)nn4)cn1c23
IC50 (Tubulin): 1.84 µM

SMILES: C[C@H]1COc2c(N3CCN(C)CC3)c(F)cc3c(=O)c(C(=O)NCc4cn(CCCCCCC(=O)NO)nn4)cn1c23
IC50 (Tubulin): 1.79 µM

SMILES: Nc1ccccc1NC(=O)c1ccc(CNC(=O)OCc2cccnc2)cc1 [ENTINOSTAT]
IC50 (K562): 21.3 µM | IC50 (DU-145 [6]): 3.75 µM

SMILES: CN(C)c1nc2c(Br)c(Br)c(Br)c(Br)c2n1CCCCCC(=O)NO
IC50 [8]: 0.86 µM

SMILES: CCN1CCN(Cc2ccc(Nc3ncc(F)c(-c4cc(F)c5nc(C)n(C(C)C)c5c4)n3)nc2)CC1
inhibition [9]: 80% | inhibition [10]: 1%

SMILES: CC(/C=C/C(=O)NO)=C\[C@@H](C)C(=O)c1ccc(N(C)C)cc1 [TRICHOSTATIN]
IC50 (Vitamin D3 receptor): 0.087 µM

SMILES: CN1c2ccccc2C(=O)N2[C@H](C(=O)Nc3ccc(C(=O)Nc4ccccc4N)cc3)Cc3c([nH]c4ccccc34)[C@@H]12
inhibition in vivo at 150 mg/kg (HCT-116): 75.2%

SMILES: Cn1c(CCCC(=O)O)nc2cc(N(CCCl)CCCl)ccc21 [BENDAMUSTINE]
IC50 [13]: 0.077 µM

SMILES: C[C@H]1COc2c(N3CCN(C)CC3)c(F)cc3c(=O)c(C(=O)OCc4cn(CCCCCC(=O)NO)nn4)cn1c23
IC50 (Tubulin): 5.45 µM
